In patent US20230145305A1, “COMPOUNDS USEFUL AS KINASE INHIBITORS” (Fochon Biosciences, Ltd., priority 2020, published 2023):

System: OCI-LY10 cells
Assay: Cell proliferation assay (MTS) in OCI-LY10 cells
Assay type: cell-based
Settings: Homo sapiens; inhibition of OCI-LY10 cells proliferation, 72 h incubation, MTS, absorbance at 490 nm; read-out: OCI-LY10 IC50
Description: MTS testing kit was purchased from Promega (Madison, Wis., USA). The RPMI-1640, Fetal bovine serum and Penicillin-Streptomycin were purchased from BI (Biological Industries, Beit Haemek, Israel). Dimethyl sulfoxide (DMSO) was purchased from Sigma (St. Louis., Mo., USA). […] To investigate whether a compound is able to inhibit the activity of BTK in cells, a mechanism-based assay using OCI-LY10 cells was developed. In this assay, inhibition of BTK was detected by the inhibition of OCI-LY10 cells proliferation. Cells were plated into 96-well plates at a density of 10000 cells/well. Plates were incubated at 37° C., with 5% CO2 for 4 h. […] Plates were incubated at 37° C., with 5% CO2 for 72 h. 20 μl MTS was added into each well and the plates were incubated at 37° C., with 5% CO2 for exactly 2 h. The absorbance was measured by a microplate reader at 490 nm. IC50 was calculated using GraphPad Prism 5.0 software. Select compounds prepared as described above were assayed according to the biological procedures described herein.

SMILES	IC50
COc1ccc(F)cc1C(=O)NCc1ccc(-c2nn(C(C)C(C)(C)C)c3c(=O)[nH]nc(N)c23)cc1 (stereo not drawn) [Example 70, N-(4-(4-amino-1-(3,3-dimethylbutan-2-yl)-7-oxo-6,7-dihydro-1H-pyrazolo[3,4-d]pyridazin-3-yl)benzyl)-5-fluoro-2-methoxybenzamide]	1 nM
COc1ccc(F)cc1C(=O)NCc1ccc(-c2cn([C@@H]3CCN(S(C)(=O)=O)C3)c3c(=O)[nH]nc(N)c23)cc1 [Example 50, (R)-N-(4-(4-amino-1-(1-(methylsulfonyl)pyrrolidin-3-yl)-7-oxo-6,7-dihydro-1H-pyrrolo[2,3-d]pyridazin-3-yl)benzyl)-5-fluoro-2-methoxybenzamide]	19 nM
COc1ccc(F)cc1C(=O)NCc1ccc(-c2cn([C@@H]3CCN(C(=O)OC4CC4)C3)c3c(=O)[nH]nc(N)c23)cc1 [Example 106, cyclopropyl (R)-3-(4-amino-3-(4-((5-fluoro-2-methoxybenzamido)methyl)phenyl)-7-oxo-6,7-dihydro-1H-pyrrolo[2,3-d]pyridazin-1-yl)pyrrolidine-1-carboxylate]	11 nM
COc1ccc(F)cc1C(=O)NCc1ccc(-c2cn([C@@H]3CCN(C(=O)N4CCC4)C3)c3c(=O)[nH]nc(N)c23)cc1 [Example 107, (R)-N-(4-(4-amino-1-(1-(azetidine-1-carbonyl)pyrrolidin-3-yl)-7-oxo-6,7-dihydro-1H-pyrrolo[2,3-d]pyridazin-3-yl)benzyl)-5-fluoro-2-methoxybenzamide]	11 nM
COc1ccc(F)cc1C(=O)NCc1ccc(-c2nn([C@@H](C)C3CC3)c3c(=O)[nH]nc(N)c23)cc1 [Example 77b, (S)-N-(4-(4-amino-1-(1-cyclopropylethyl)-7-oxo-6,7-dihydro-1H-pyrazolo[3,4-d]pyridazin-3-yl)benzyl)-5-fluoro-2-methoxybenzamide]	1 nM
COc1ccc(F)cc1C(=O)NCc1ccc(-c2nn(C(C)(C)C(F)F)c3c(=O)[nH]nc(N)c23)cc1 [Example 85, N-(4-(4-amino-1-(1,1-difluoro-2-methylpropan-2-yl)-7-oxo-6,7-dihydro-1H-pyrazolo[3,4-d]pyridazin-3-yl)benzyl)-5-fluoro-2-methoxybenzamide]	18 nM
COc1ccc(F)cc1C(=O)NCc1ccc(-c2cn([C@@H]3CCN(C(=O)OC(C)C)C3)c3c(=O)[nH]nc(N)c23)cc1 [Example 105, isopropyl (R)-3-(4-amino-3-(4-((5-fluoro-2-methoxybenzamido)methyl)phenyl)-7-oxo-6,7-dihydro-1H-pyrrolo[2,3-d]pyridazin-1-yl)pyrrolidine-1-carboxylate]	4 nM
COc1ccc(F)cc1C(=O)NCc1ccc(-c2nn([C@H](C)C(F)(F)F)c3c(=O)[nH]nc(N)c23)cc1 [Example 40b, (R)-N-(4-(4-amino-7-oxo-1-(1,1,1-trifluoropropan-2-yl)-6,7-dihydro-1H-pyrazolo[3,4-d]pyridazin-3-yl)benzyl)-5-fluoro-2-methoxybenzamide]	83 nM
COc1ccc(F)cc1C(=O)NCc1ccc(-n2nc(C3CC3(F)F)c3c(=O)[nH]nc(N)c32)cc1 (stereo not drawn) [Example 99, N-(4-(7-amino-3-(2,2-difluorocyclopropyl)-4-oxo-4,5-dihydro-1H-pyrazolo[3,4-d]pyridazin-1-yl)benzyl)-5-fluoro-2-methoxybenzamide]	65 nM
COc1ccc(F)cc1C(=O)NCc1ccc(-c2cn(C3CCOCC3)c3c(=O)[nH]nc(N)c23)cc1 [Example 37, N-(4-(4-amino-7-oxo-1-(tetrahydro-2H-pyran-4-yl)-6,7-dihydro-1H-pyrrolo [2,3-d]pyridazin-3-yl)benzyl)-5-fluoro-2-methoxybenzamide]	9 nM
COc1ccc(F)cc1C(=O)NCc1ccc(-c2nn(C3CCCC3)c3c(=O)[nH]nc(N)c23)c(F)c1 [Example 63, N-(4-(4-amino-1-cyclopentyl-7-oxo-6,7-dihydro-1H-pyrazolo[3,4-d]pyridazin-3-yl)-3-fluorobenzyl)-5-fluoro-2-methoxybenzamide]	1 nM
COc1ccc(F)cc1C(=O)NCc1ccc(-c2nn(C3CCC3)c3c(=O)[nH]nc(N)c23)cc1 [Example 65, N-(4-(4-amino-1-cyclobutyl-7-oxo-6,7-dihydro-1H-pyrazolo[3,4-d]pyridazin-3-yl)benzyl)-5-fluoro-2-methoxybenzamide]	1 nM
COc1ccc(F)cc1C(=O)NCc1ccc(-c2cn(C3CC(F)(F)C3)c3c(=O)[nH]nc(N)c23)cc1F [Example 56, N-(4-(4-amino-1-(3,3-difluorocyclobutyl)-7-oxo-6,7-dihydro-1H-pyrrolo[2,3-d]pyridazin-3-yl)-2-fluorobenzyl)-5-fluoro-2-methoxybenzamide]	3 nM
COc1ccc(F)cc1C(=O)NCc1ccc(-c2cn(C3CCCC3)c3c(=O)[nH]nc(N)c23)c(F)c1 [Example 31, N-(4-(4-amino-1-cyclopentyl-7-oxo-6,7-dihydro-1H-pyrrolo[2,3-d]pyridazin-3-yl)-3-fluorobenzyl)-5-fluoro-2-methoxybenzamide]	1 nM
CCC(C)n1nc(-c2ccc(CNC(=O)c3cc(F)ccc3OC)cc2)c2c(N)n[nH]c(=O)c21 (stereo not drawn) [Example 67, N-(4-(4-amino-1-(sec-butyl)-7-oxo-6,7-dihydro-1H-pyrazolo[3,4-d]pyridazin-3-yl)benzyl)-5-fluoro-2-methoxybenzamide]	1 nM
COc1ccc(F)cc1C(=O)NCc1ccc(-c2cn(C3CCCC3)c3c(=O)[nH]nc(N)c23)cn1 [Example 45, N-((5-(4-amino-1-cyclopentyl-7-oxo-6,7-dihydro-1H-pyrrolo[2,3-d]pyridazin-3-yl)pyridin-2-yl)methyl)-5-fluoro-2-methoxybenzamide]	32 nM
COc1ccc(F)cc1C(=O)NCc1ccc(-c2nn(C3(C)CC3)c3c(=O)[nH]nc(N)c23)cc1 [Example 74, N-(4-(4-amino-1-(1-methylcyclopropyl)-7-oxo-6,7-dihydro-1H-pyrazolo[3,4-d]pyridazin-3-yl)benzyl)-5-fluoro-2-methoxybenzamide]	1 nM
COc1ccc(F)cc1C(=O)NCc1ccc(-n2nc(C3CCCC3(F)F)c3c(=O)[nH]nc(N)c32)cc1 (stereo not drawn) [Example 90, N-(4-(7-amino-3-(2,2-difluorocyclopentyl)-4-oxo-4,5-dihydro-1H-pyrazolo [3,4-d]pyridazin-1-yl)benzyl)-5-fluoro-2-methoxybenzamide]	15 nM
COc1ccc(F)cc1C(=O)NCc1ccc(-c2nn([C@H](C)C3CC3)c3c(=O)[nH]nc(N)c23)cc1 [Example 77a, (R)-N-(4-(4-amino-1-(1-cyclopropylethyl)-7-oxo-6,7-dihydro-1H-pyrazolo[3,4-d]pyridazin-3-yl)benzyl)-5-fluoro-2-methoxybenzamide]	1 nM
COc1ccc(F)cc1C(=O)NCc1ccc(-c2cn([C@@H]3C[C@@H]3F)c3c(=O)[nH]nc(N)c23)cc1 [Example 57, N-(4-(4-amino-1-((1R,2S)-2-fluorocyclopropyl)-7-oxo-6,7-dihydro-1H-pyrrolo[2,3-d]pyridazin-3-yl)benzyl)-5-fluoro-2-methoxybenzamide]	24 nM
COc1ccc(F)cc1C(=O)NCc1ccc(-c2cn(C(C)C(F)(F)F)c3c(=O)[nH]nc(N)c23)cc1F (stereo not drawn) [Example 53, N-(4-(4-amino-7-oxo-1-(1,1,1-trifluoropropan-2-yl)-6,7-dihydro-1H-pyrrolo[2,3-d]pyridazin-3-yl)-2-fluorobenzyl)-5-fluoro-2-methoxybenzamide]	3 nM
COc1ccc(F)cc1C(=O)NCc1ccc(-n2cc(C3CCCCC3)c3c(=O)[nH]nc(N)c32)cc1 [Example 27, N-(4-(7-amino-3-cyclohexyl-4-oxo-4,5-dihydro-1H-pyrrolo[2,3-d]pyridazin-1-yl)benzyl)-5-fluoro-2-methoxybenzamide]	1 nM
COc1ccc(F)cc1C(=O)NCc1ccc(-c2cn([C@@H]3CCN(S(=O)(=O)C4CC4)C3)c3c(=O)[nH]nc(N)c23)cc1 [Example 112, (R)-N-(4-(4-amino-1-(1-(cyclopropylsulfonyl)pyrrolidin-3-yl)-7-oxo-6,7-dihydro-1H-pyrrolo[2,3-d]pyridazin-3-yl)benzyl)-5-fluoro-2-methoxybenzamide]	2 nM
COc1ccc(F)cc1C(=O)NCc1ccc(-n2nc(C3(F)CC3)c3c(=O)[nH]nc(N)c32)cc1 [Example 98, N-(4-(7-amino-3-(1-fluorocyclopropyl)-4-oxo-4,5-dihydro-1H-pyrazolo[3,4-d]pyridazin-1-yl)benzyl)-5-fluoro-2-methoxybenzamide]	92 nM
COc1ccc(F)cc1C(=O)NCc1ccc(-c2cn(C3CC(F)(F)C3)c3c(=O)[nH]nc(N)c23)cc1 [Example 54, N-(4-(4-amino-1-(3,3-difluorocyclobutyl)-7-oxo-6,7-dihydro-1H-pyrrolo[2,3-d]pyridazin-3-yl)benzyl)-5-fluoro-2-methoxybenzamide]	1 nM
COc1ccc(F)cc1C(=O)NCc1ccc(-c2nn(C(C)(C)CF)c3c(=O)[nH]nc(N)c23)cc1 [Example 83, N-(4-(4-amino-1-(1-fluoro-2-methylpropan-2-yl)-7-oxo-6,7-dihydro-1H-pyrazolo[3,4-d]pyridazin-3-yl)benzyl)-5-fluoro-2-methoxybenzamide]	46 nM
COc1ccc(F)cc1C(=O)NCc1ccc(-n2c(=O)n(C3CCC3)c3c(=O)[nH]nc(N)c32)cc1 [Example 102, N-(4-(7-amino-3-cyclobutyl-2,4-dioxo-2,3,4,5-tetrahydro-1H-imidazo[4,5-d]pyridazin-1-yl)benzyl)-5-fluoro-2-methoxybenzamide]	76 nM
